Test results from ChEMBL document CHEMBL1201862, “PubChem BioAssay data set” (2004).
The source made the active and inactive calls.

Key:
Cytochrome P450 2C19 [1] = target: T1, Cytochrome P450 2C19 (Homo sapiens, UniProt P33261); assay: Cytochrome panel assay with activity outcomes. Panel member name: p450-cyp2c19 Compounds with AC50 equal or less than 10 uM are considered active; assay type: functional; settings: read-out: AC50
Cytochrome P450 2C9 = Cytochrome P450 2C9 (Homo sapiens, UniProt P11712)
[2] = HIV-1 Vif–A3G interaction blockers – biochemical, TR-FRET, GST-Vif 1-94, biotin-A3G peptide, dose response retest, primary screen (AID 1117319); assay type: functional;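 also: TR-FRET signal of purified GST-Vif binding a biotinylated A3G peptide; inhibitors lower the FRET signal by blocking Vif and A3G binding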
Cytochrome P450 2C19 [3] = target: T1, Cytochrome P450 2C19; assay: qHTS Assay for Inhibitors and Substrates of Cytochrome P450 2C19. [Related pubchem assays: 410 ]; assay type: ADME; settings: read-out: Potency
[4] = Late stage counterscreen results from the probe development effort to identify activators of signal transducer and activator of transcription 1 (STAT1): luminescence-based cell-based dose response assay to identify cytotoxic compounds.; assay type: functional
[5] = Luminescence Cell-Based Dose Confirmation HTS to Identify Inhibitors of Platelet Dense Granule Release. [Related pubchem assays: 1663 (Primary HTS), 1678 (Summary of Project)]; assay type: functional
[6] = target: Luciferin 4-monooxygenase (Photinus pyralis, UniProt P08659); assay: inhibition of purified Photinus pyralis luciferase – biochemical, luminescence, dose response (AID 1891)
[7] = viability inhibitors of stage V gametocytes – luminescence, dose response (AID 1117278); assay type: functional, cell-based;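 also: gametocytes exposed to compound for 24 hours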
[8] = viability loss in human Jurkat cells – cell-based, luminescence, cytotoxicity control for P. falciparum gametocyte viability project, dose response (AID 1117277); assay type: functional;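 also: potency reflects loss of cellular ATP meaning fewer viable cells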
[9] = target: E3 ubiquitin-protein ligase Mdm2 (Homo sapiens, UniProt Q00987); assay: MDM2-luc reporter signal enhancers, multi-concentration potency testing, MDM2 ubiquitin-protein ligase inhibitor program, whole-cell format, luminescence detection, 384-well microplate (AID 1394); assay type: functional;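 also: MDM2 E3 inhibitors raise luminescence so EC50 is for signal enhancement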
[10] = target: Bifunctional protein GlmU (Mycobacterium tuberculosis, UniProt P9WMN3); assay: Inhibitors of Mycobacterial Glucosamine-1-phosphate acetyl transferase (GlmU). Secondary screen.; set-up: species or system Mycobacterium tuberculosis H37Rv
Protein skinhead-1 = target: T2, Protein skinhead-1 (Caenorhabditis elegans, UniProt P34707); assay type: functional
T2 sequence (P34707 whole entry): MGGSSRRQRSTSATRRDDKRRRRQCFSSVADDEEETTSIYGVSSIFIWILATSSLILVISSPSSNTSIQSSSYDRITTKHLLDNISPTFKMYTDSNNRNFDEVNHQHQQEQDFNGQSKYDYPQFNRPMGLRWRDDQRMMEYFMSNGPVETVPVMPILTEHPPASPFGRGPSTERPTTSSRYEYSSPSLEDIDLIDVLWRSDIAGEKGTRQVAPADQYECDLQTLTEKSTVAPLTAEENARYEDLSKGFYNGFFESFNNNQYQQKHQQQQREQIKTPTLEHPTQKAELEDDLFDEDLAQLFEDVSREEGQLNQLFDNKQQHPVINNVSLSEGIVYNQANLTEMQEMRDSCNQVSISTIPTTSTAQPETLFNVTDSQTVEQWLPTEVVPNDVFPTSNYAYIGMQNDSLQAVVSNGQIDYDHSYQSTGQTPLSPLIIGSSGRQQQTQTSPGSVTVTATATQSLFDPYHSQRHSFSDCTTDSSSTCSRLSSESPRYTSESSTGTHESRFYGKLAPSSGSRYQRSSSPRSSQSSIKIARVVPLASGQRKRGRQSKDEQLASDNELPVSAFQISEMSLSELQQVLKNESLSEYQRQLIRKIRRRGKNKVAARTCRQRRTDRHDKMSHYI

NADPH oxidase 1 = NADPH oxidase 1 (Homo sapiens, UniProt Q9Y5S8); assay: Late stage results from the probe development effort to identify inhibitors of NOX1: HEK/293 IC50. [Related pubchem assays: 1796 (Summary AID (NOX1)), 2752 (Primary screen (NOX1 inhibitors, synthesized analogs set 2)), 2664 (Primary screen (NOX1 inhibitors, synthesized analogs)), 1792 (Primary Screen (NOX1)), 2545 (Confirmation screen (NOX1 …; assay type: functional
Chain of NADPH oxidase 1 (Q9Y5S8 whole entry): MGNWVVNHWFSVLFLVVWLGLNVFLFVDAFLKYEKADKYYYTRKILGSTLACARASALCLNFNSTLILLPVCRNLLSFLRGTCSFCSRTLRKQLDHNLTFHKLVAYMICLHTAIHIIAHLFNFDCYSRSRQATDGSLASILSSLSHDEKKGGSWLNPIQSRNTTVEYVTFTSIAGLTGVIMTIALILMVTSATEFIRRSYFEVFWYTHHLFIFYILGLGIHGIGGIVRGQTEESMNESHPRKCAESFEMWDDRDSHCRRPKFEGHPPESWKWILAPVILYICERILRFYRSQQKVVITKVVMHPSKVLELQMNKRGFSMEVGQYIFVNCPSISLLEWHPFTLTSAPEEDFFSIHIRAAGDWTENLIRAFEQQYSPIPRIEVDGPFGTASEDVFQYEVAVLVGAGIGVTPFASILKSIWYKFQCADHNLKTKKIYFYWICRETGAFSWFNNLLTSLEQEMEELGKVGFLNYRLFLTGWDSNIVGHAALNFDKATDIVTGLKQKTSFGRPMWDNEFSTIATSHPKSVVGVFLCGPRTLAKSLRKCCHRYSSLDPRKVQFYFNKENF

T1 sequence (P33261 whole entry): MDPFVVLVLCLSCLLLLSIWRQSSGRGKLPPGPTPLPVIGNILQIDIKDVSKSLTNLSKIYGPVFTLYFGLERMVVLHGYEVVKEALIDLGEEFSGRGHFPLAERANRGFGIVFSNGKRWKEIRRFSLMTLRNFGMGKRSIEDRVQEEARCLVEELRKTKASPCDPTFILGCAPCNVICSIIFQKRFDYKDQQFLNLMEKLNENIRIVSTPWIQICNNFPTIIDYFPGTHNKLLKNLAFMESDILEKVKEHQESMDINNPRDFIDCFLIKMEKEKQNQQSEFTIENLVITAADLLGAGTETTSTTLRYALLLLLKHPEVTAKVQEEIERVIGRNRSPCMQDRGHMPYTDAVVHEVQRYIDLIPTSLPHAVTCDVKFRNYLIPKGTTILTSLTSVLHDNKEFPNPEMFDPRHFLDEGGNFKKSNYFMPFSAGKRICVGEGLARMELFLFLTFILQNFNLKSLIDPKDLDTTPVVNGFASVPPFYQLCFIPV
Chain of Luciferin 4-monooxygenase (P08659 whole entry): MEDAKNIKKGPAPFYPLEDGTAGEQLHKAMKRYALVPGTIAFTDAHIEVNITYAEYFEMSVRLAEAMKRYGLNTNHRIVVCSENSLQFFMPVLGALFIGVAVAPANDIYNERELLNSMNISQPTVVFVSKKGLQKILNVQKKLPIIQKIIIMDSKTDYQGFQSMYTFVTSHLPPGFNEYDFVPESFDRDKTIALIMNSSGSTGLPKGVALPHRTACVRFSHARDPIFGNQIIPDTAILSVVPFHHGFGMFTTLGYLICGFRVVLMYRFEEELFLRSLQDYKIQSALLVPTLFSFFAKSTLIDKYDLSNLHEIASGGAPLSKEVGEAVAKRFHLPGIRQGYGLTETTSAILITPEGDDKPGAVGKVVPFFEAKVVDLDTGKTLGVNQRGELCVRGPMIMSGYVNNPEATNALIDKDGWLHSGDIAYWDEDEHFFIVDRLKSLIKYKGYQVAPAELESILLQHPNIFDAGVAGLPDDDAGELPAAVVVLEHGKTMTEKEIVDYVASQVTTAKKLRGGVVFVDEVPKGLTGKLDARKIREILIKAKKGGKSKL
Chain of Bifunctional protein GlmU (P9WMN3 whole entry): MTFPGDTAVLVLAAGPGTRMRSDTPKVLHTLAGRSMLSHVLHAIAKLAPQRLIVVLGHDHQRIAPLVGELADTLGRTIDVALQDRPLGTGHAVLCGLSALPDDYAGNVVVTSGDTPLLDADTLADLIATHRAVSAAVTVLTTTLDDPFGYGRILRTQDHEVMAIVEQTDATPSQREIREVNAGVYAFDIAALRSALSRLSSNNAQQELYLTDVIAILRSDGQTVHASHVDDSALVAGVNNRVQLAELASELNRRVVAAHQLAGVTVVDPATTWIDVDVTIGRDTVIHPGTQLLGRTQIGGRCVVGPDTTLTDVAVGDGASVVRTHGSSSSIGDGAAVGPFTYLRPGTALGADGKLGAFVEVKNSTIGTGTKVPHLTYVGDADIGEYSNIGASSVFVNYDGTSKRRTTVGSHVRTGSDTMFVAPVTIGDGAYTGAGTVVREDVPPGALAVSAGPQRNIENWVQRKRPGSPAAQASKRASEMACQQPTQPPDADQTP
Chain of E3 ubiquitin-protein ligase Mdm2 (Q00987 whole entry): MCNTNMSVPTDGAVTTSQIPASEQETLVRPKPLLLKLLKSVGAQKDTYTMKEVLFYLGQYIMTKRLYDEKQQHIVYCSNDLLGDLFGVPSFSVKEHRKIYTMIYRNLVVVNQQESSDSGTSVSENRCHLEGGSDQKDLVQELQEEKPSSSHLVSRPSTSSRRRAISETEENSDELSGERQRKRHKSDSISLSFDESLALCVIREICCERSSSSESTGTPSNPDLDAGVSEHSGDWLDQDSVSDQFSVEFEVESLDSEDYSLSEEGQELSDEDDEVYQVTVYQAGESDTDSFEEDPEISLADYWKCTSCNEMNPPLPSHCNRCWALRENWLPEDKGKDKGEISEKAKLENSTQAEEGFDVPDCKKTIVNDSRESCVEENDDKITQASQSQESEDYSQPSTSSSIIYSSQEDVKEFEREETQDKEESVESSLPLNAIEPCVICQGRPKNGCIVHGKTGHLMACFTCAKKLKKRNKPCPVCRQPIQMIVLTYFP
Chain of Cytochrome P450 2C9 (P11712 whole entry): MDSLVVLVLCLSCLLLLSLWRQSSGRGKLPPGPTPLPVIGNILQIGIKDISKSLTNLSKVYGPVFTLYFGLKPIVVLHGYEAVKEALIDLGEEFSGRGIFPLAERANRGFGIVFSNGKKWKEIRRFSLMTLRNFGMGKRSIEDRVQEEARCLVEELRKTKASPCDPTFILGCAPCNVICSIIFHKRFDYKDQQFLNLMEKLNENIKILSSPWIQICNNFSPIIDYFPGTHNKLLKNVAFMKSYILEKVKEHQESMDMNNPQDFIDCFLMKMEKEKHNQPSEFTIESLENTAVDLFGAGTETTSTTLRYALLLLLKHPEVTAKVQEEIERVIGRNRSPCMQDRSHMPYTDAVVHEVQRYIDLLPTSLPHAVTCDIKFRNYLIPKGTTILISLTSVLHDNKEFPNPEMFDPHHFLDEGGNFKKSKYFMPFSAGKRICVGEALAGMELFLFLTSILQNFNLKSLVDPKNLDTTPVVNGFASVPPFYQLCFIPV

SMILES: COC(=O)[C@@]1(Cc2ccc(OC)cc2)[C@H]2c3cc(C(=O)N(C)C)n(C[C@H](O)CO)c3C[C@H]2CN1C(=O)c1ccccc1
- AC50 (Cytochrome P450 2C19 [1]): 31.6 µM (inconclusive)
- AC50 (Cytochrome P450 2C9): 31.6 µM (inconclusive)
- IC50 [2]: > 100 µM (active)

SMILES: CC(C)C[C@@H](CC(=O)N[C@H](CC(=O)N[C@@H]1CCCC[C@H]1C(=O)N[C@H](CC(=O)N[C@@H](CCC(=O)O)CC(=O)O)CC(C)C)C(C)C)NC(=O)[C@@H]1CNCC[C@H]1N
- AC50 (Cytochrome P450 2C19 [3]): 31.6 µM (inconclusive)

SMILES: O=C(/C=C/Nc1ccccc1F)c1ccc(Br)cc1
- IC50 [4]: > 55.7 µM (not active)
- EC50 [5]: > 112 µM (not active)
- EC50 [6]: 74.5 µM (active)

SMILES: C=CCn1c(SCC(=O)NCc2ccc3c(c2)OCO3)nc2scc(-c3ccc(F)cc3)c2c1=O
- IC50 [7]: > 109 µM (inactive)
- IC50 [8]: 68.6 µM (inactive)

SMILES: CCN(CC)c1ccc(/C=C2/C(=O)c3ccc(C(=O)O)cc3C2=O)cc1
- EC50 [9]: 0.07 µM (active)
- IC50 [10]: 34.3 µM (active)
- IC50 (Protein skinhead-1): 20.9 µM (active)

SMILES: O=C(Oc1ccccc1N1CCCCC1)c1sc2ccccc2c1Cl
- IC50 (NADPH oxidase 1): 2.31 µM (active)
